Results as given in ChEMBL document CHEMBL4229379, “Synthesis and structure-activity relationship of novel bisindole amidines active against MDR Gram-positive and Gram-negative bacteria” (Eur J Med Chem, 2018).

Tests used:
[1] = system: Klebsiella pneumoniae; experiment: Antibacterial activity against new delhi metallo-beta-lactamase-1 harboring Klebsiella pneumoniae ATCC BAA-2146 after 18 hrs by CLSI broth microdilution method; assay type: functional
[2] = system: Escherichia coli; experiment: Antibacterial activity against extended-spectrum beta-lactamase harboring Escherichia coli 13-1 after 18 hrs by CLSI broth microdilution method; assay type: functional
[3] = system: Escherichia coli; experiment: Antibacterial activity against extended-spectrum beta-lactamase harboring Escherichia coli CDC1001728 after 18 hrs by CLSI broth microdilution method; assay type: functional
[4] = system: Klebsiella pneumoniae; experiment: Antibacterial activity against new delhi metallo-beta-lactamase-1 harboring Klebsiella pneumoniae 13-1 after 18 hrs by CLSI broth microdilution method; assay type: functional
[5] = system: Klebsiella pneumoniae; experiment: Antibacterial activity against carbapenem-resistant Klebsiella pneumoniae 12-11 after 18 hrs by CLSI broth microdilution method; assay type: functional
[6] = system: Klebsiella pneumoniae; experiment: Antibacterial activity against carbapenem-resistant Klebsiella pneumoniae 12-12 after 18 hrs by CLSI broth microdilution method; assay type: functional
[7] = system: Acinetobacter calcoaceticus; experiment: Antibacterial activity against new delhi metallo-beta-lactamase-1 harboring Acinetobacter calcoaceticus 13-1 after 18 hrs by CLSI broth microdilution method; assay type: functional
[8] = system: Acinetobacter calcoaceticus; experiment: Antibacterial activity against carbapenem-resistant Acinetobacter calcoaceticus 12-6 after 18 hrs by CLSI broth microdilution method; assay type: functional
[9] = system: Klebsiella aerogenes; experiment: Antibacterial activity against carbapenem-resistant Enterobacter aerogenes 11-4 after 18 hrs by CLSI broth microdilution method; assay type: functional
[10] = system: Enterobacter cloacae; experiment: Antibacterial activity against new delhi metallo-beta-lactamase-1 harboring Enterobacter cloacae CDC1000654 after 18 hrs by CLSI broth microdilution method; assay type: functional
[11] = system: Enterobacter cloacae; experiment: Antibacterial activity against new delhi metallo-beta-lactamase-1 harboring Enterobacter cloacae 13-1 after 18 hrs by CLSI broth microdilution method; assay type: functional
[12] = system: Staphylococcus epidermidis; experiment: Antibacterial activity against methicillin-sensitive Staphylococcus epidermidis ATCC 12228 after 18 hrs by CLSI broth microdilution method; assay type: functional; details: ATCC 12228, 18 h
[13] = system: Staphylococcus epidermidis; experiment: Antibacterial activity against methicillin-resistant Staphylococcus epidermidis 12-8 after 18 hrs by CLSI broth microdilution method; assay type: functional; details: 12-8, 18 h
[14] = system: Staphylococcus aureus; experiment: Antibacterial activity against methicillin-sensitive Staphylococcus aureus ATCC 29213 after 18 hrs by CLSI broth microdilution method; assay type: functional; details: ATCC 29213, 18 h
[15] = system: Staphylococcus aureus; experiment: Antibacterial activity against methicillin-resistant Staphylococcus aureus 12-33 after 18 hrs by CLSI broth microdilution method; assay type: functional; details: 12-33, 18 h
[16] = system: Enterococcus faecalis; experiment: Antibacterial activity against vancomycin-sensitive Enterococcus faecalis ATCC 29212 after 18 hrs by CLSI broth microdilution method; assay type: functional; details: ATCC 29212, 18 h
[17] = system: Enterococcus faecalis; experiment: Antibacterial activity against vancomycin-resistant Enterococcus faecalis 09-9 after 18 hrs by CLSI broth microdilution method; assay type: functional; details: 09-9, 18 h
[18] = system: Enterococcus faecium; experiment: Antibacterial activity against vancomycin-resistant Enterococcus faecium ATCC 700221 after 18 hrs by CLSI broth microdilution method; assay type: functional; details: ATCC 700221, 18 h
[19] = system: Enterococcus faecium; experiment: Antibacterial activity against vancomycin-sensitive Enterococcus faecium 12-3 after 18 hrs by CLSI broth microdilution method; assay type: functional; details: 12-3, 18 h
[20] = system: Escherichia coli; experiment: Antibacterial activity against extended-spectrum beta-lactamase deficient Escherichia coli ATCC 25922 after 18 hrs by CLSI broth microdilution method; assay type: functional; details: ATCC 25922, 18 h
[21] = system: Escherichia coli; experiment: Antibacterial activity against extended-spectrum beta-lactamase harboring Escherichia coli 12-15 after 18 hrs by CLSI broth microdilution method; assay type: functional; details: 12-15, 18 h
[22] = system: Klebsiella pneumoniae; experiment: Antibacterial activity against extended-spectrum beta-lactamase harboring Klebsiella pneumoniae ATCC 700603 after 18 hrs by CLSI broth microdilution method; assay type: functional; details: Klebsiella pneumoniae, 700603, 18 h
[23] = system: Klebsiella pneumoniae; experiment: Antibacterial activity against extended-spectrum beta-lactamase harboring Klebsiella pneumoniae 12-8 after 18 hrs by CLSI broth microdilution method; assay type: functional; details: 12-8, 18 h
[24] = system: Pseudomonas aeruginosa; experiment: Antibacterial activity against Pseudomonas aeruginosa ATCC 27853 after 18 hrs by CLSI broth microdilution method; assay type: functional; details: ATCC 27853, 18 h
[25] = system: Acinetobacter calcoaceticus; experiment: Antibacterial activity against Acinetobacter calcoaceticus ATCC 19606 after 18 hrs by CLSI broth microdilution method; assay type: functional; details: ATCC 19606, 18 h
[26] = system: Enterobacter cloacae; experiment: Antibacterial activity against Enterobacter cloacae ATCC 43560 after 18 hrs by CLSI broth microdilution method; assay type: functional; details: ATCC 43560, 18 h
[27] = system: Proteus mirabilis; experiment: Antibacterial activity against Proteus mirabilis 12-6 after 18 hrs by CLSI broth microdilution method; assay type: functional; details: 12-6, 18 h
[28] = Cytotoxicity against HEK293T cells assessed as reduction in cell viability after 48 hrs by MTS assay; assay type: cell-based, HEK-293T; details: human
[29] = system: Staphylococcus epidermidis; experiment: Antibacterial activity against methicillin-sensitive Staphylococcus epidermidis 12-6 after 18 hrs by CLSI broth microdilution method; assay type: functional; details: 12-6, 18 h
[30] = system: Staphylococcus aureus; experiment: Antibacterial activity against methicillin-resistant Staphylococcus aureus ATCC 33591 after 18 hrs by CLSI broth microdilution method; assay type: functional; details: ATCC 33591, 18 h
[31] = system: Staphylococcus aureus; experiment: Antibacterial activity against methicillin-sensitive Staphylococcus aureus 15 after 18 hrs by CLSI broth microdilution method; assay type: functional; details: Staphylococcus aureus, 15, 18 h
[32] = system: Staphylococcus aureus; experiment: Antibacterial activity against methicillin-sensitive Staphylococcus aureus 12-28 after 18 hrs by CLSI broth microdilution method; assay type: functional; details: 12-28, 18 h
[33] = system: Enterococcus faecalis; experiment: Antibacterial activity against vancomycin-resistant Enterococcus faecalis ATCC 51299 after 18 hrs by CLSI broth microdilution method; assay type: functional; details: ATCC 51299, 18 h
[34] = system: Enterococcus faecalis; experiment: Antibacterial activity against vancomycin-sensitive Enterococcus faecalis 12-5 after 18 hrs by CLSI broth microdilution method; assay type: functional; details: 12-5, 18 h
[35] = system: Enterococcus faecium; experiment: Antibacterial activity against vancomycin-resistant Enterococcus faecium 12-1 after 18 hrs by CLSI broth microdilution method; assay type: functional; details: 12-1, 18 h
[36] = system: Escherichia coli; experiment: Antibacterial activity against extended-spectrum beta-lactamase deficient Escherichia coli 1515 after 18 hrs by CLSI broth microdilution method; assay type: functional; details: Escherichia coli, 1515, 18 h
[37] = system: Escherichia coli; experiment: Antibacterial activity against extended-spectrum beta-lactamase deficient Escherichia coli 12-14 after 18 hrs by CLSI broth microdilution method; assay type: functional; details: 12-14, 18 h
[38] = system: Klebsiella pneumoniae; experiment: Antibacterial activity against extended-spectrum beta-lactamase deficient Klebsiella pneumoniae 7 after 18 hrs by CLSI broth microdilution method; assay type: functional; details: Klebsiella pneumoniae, 7, 18 h
[39] = system: Klebsiella pneumoniae; experiment: Antibacterial activity against extended-spectrum beta-lactamase deficient Klebsiella pneumoniae 12-4 after 18 hrs by CLSI broth microdilution method; assay type: functional; details: 12-4, 18 h
[40] = system: Pseudomonas aeruginosa; experiment: Antibacterial activity against Pseudomonas aeruginosa PAO1 after 18 hrs by CLSI broth microdilution method; assay type: functional; details: PAO1, 18 h
[41] = system: Pseudomonas aeruginosa; experiment: Antibacterial activity against Pseudomonas aeruginosa 12-16 after 18 hrs by CLSI broth microdilution method; assay type: functional; details: 12-16, 18 h
[42] = system: Klebsiella aerogenes; experiment: Antibacterial activity against Enterobacter aerogenes ATCC 13048 after 18 hrs by CLSI broth microdilution method; assay type: functional; details: ATCC 13048, 18 h
[43] = system: Serratia marcescens; experiment: Antibacterial activity against Serratia marcescens ATCC 21074 after 18 hrs by CLSI broth microdilution method; assay type: functional; details: ATCC 21074, 18 h
[44] = system: Providencia rettgeri; experiment: Antibacterial activity against Providencia rettgeri ATCC 31052 after 18 hrs by CLSI broth microdilution method; assay type: functional; details: ATCC 31052, 18 h
[45] = system: Proteus vulgaris; experiment: Antibacterial activity against Proteus vulgaris ATCC 29905 after 18 hrs by CLSI broth microdilution method; assay type: functional; details: ATCC 29905, 18 h
[46] = system: Stenotrophomonas maltophilia; experiment: Antibacterial activity against Stenotrophomonas maltophilia ATCC 13636 after 18 hrs by CLSI broth microdilution method; assay type: functional; details: ATCC 13636, 18 h
[47] = system: Citrobacter freundii; experiment: Antibacterial activity against Citrobacter freundii ATCC 43864 after 18 hrs by CLSI broth microdilution method; assay type: functional; details: ATCC 43864, 18 h

COLISTIN
0.5 µg/mL: MIC [1] | MIC [2] | MIC [3] | MIC [4] | MIC [5] | MIC [7] | MIC [8] | MIC [9] | MIC [10] | MIC [11]
1 µg/mL: MIC [6]

CN(C)c1cc(NC(=O)CNC(C)(C)C)c(O)c2c1C[C@H]1C[C@H]3[C@H](N(C)C)C(O)=C(C(N)=O)C(=O)[C@@]3(O)C(O)=C1C2=O [TIGECYCLINE]
1 µg/mL: MIC ([5]; 12-11, 18 h) | MIC ([6]; 12-12, 18 h) | MIC ([8]; 12-6, 18 h) | MIC ([9]; 11-4, 18 h) | MIC ([11]; 13-1, 18 h)
8 µg/mL: MIC ([1]; ATCC BAA-2146, 18 h) | MIC ([10]; CDC1000654, 18 h)
0.25 µg/mL: MIC ([2]; 13-1, 18 h)
0.5 µg/mL: MIC ([3]; CDC1001728, 18 h) | MIC ([4]; 13-1, 18 h) | MIC ([7]; 13-1, 18 h)

CN(C)C(=N)c1ccc2cc(-c3cccc(-c4cc5ccc(C(=N)N(C)C)cc5[nH]4)c3)[nH]c2c1
128 µg/mL: MIC [33] | MIC [44]
16 µg/mL: MIC [13] | MIC [18]
52.2 µg/mL: CC50 at 48 h [28]
> 128 µg/mL: MIC [19] | MIC [22] | MIC ([1]; ATCC BAA-2146, 18 h) | MIC [23] | MIC [24] | MIC [25] | MIC [26] | MIC [27] | MIC [34] | MIC [38] | MIC [39] | MIC [40] | MIC [41] | MIC [42] | MIC [43] | MIC [45] | MIC [46] | MIC [47]
64 µg/mL: MIC [16] | MIC [17] | MIC [20] | MIC [21] | MIC [36] | MIC [37]
4 µg/mL: MIC [30] | MIC [31] | MIC [32]
32 µg/mL: MIC [29]
8 µg/mL: MIC [12] | MIC [14] | MIC [15] | MIC [35]
